Entries after “also recorded” stand apart in the source; their conditions may differ.
Experiments:
[1] = cited from earlier work
[2] = Re-precipitation of mometasone furoate in solvent systems of Ex. 10 and 11 of DE102006034883; assay type: physicochemical; settings: then 40.56 parts of water
Experimental: Similar to Example 7 above, dissolution behaviour of mometasone furoate was also tested for the DIPA-containing prior art cream formulations described in examples 10 and 11 of DE102006034883. For this purpose, mometasone furoate was dissolved in solvent systems based on Ex. 10 and 11 as follows:
Ex. 10: 0.1 parts mometasone furoate were dissolved in 1 part phenoxy ethanol and 10 parts hexylene glycol, resulting in a clear solution.
Ex. 11: 0.1 parts mometasone furoate were dissolved in 1 part phenoxy ethanol and 10 parts diethylene glycol monoethyl ether (Transcutol®), resulting in a clear solution.

[3] = Solubility of mometasone furoate in solvents of prior art formulations; assay type: physicochemical
Experimental: Dissolution studies were performed with mometasone furoate in both the oil phase and the aqueous phase of the DIPA-containing lotion formulations of Examples 3 and 9 of DE102006034883 to determine the solubility of mometasone furoate in mg/ml in said formulations. For this purpose, first, the liquid excipients of the oil phase and the aqueous phase were mixed in the correct relative amounts to form the respective solvent systems; the low amounts of solid excipients contained in the formulations were not considered. Based on the weight ratio between oil and water phase, the theoretical solubility of mometasone furoate in the complete formulation can then be estimated using the formula: [proportion of oil phase·solubility in oil phase]+[proportion of aqueous phase·solubility in aqueous phase] For instance, for Ex. 3 of DE102006034883, the oil phase (paraffinum liquidum) makes up about 20 wt. %, the remainder is the aqueous phase. […] For instance, for Ex. 9 of DE102006034883, the oil phase makes up 27.88 wt. %, the remainder is the aqueous phase.

SMILES: C[C@@H]1C[C@H]2[C@@H]3CCC4=CC(=O)C=C[C@]4(C)[C@@]3(Cl)[C@@H](O)C[C@]2(C)[C@@]1(OC(=O)c1ccco1)C(=O)CCl [mometasone furoate, 9α,21-dichloro-11β,17α-dihydroxy-16α-methylpregna-1,4-diene-3,20-dione 17-(2-furoate)]
- log P [1]: about 4
- water solubility [1]: about 0.95 μg/mL
- behaviour on addition of aqueous phase ([2]; Ex. 10 solvent system: phenoxy ethanol, hexylene glycol): precipitation of mometasone furoate; also recorded: precipitated
- behaviour on addition of aqueous phase ([2]; Ex. 11 solvent system: phenoxy ethanol, Transcutol®): precipitation of mometasone furoate; also recorded: precipitated
- solubility in liquid paraffin [3]: about 0.05 mg/mL
- Solubility of mometasone furoate ([3]; Aqueous phase Ex. 3 of DE102006034883 (phenoxy ethanol, polysorbate 40, Transcutol, water)): 150 µg/mL
- Solubility of mometasone furoate ([3]; Aqueous phase Ex. 9 of DE102006034883 (phenoxy ethanol, Steareth 21, hexylene glycol, water)): 90 µg/mL
- Solubility of mometasone furoate ([3]; Oil phase Ex. 3 of DE102006034883 (liquid paraffin)): 50 µg/mL
- Solubility of mometasone furoate ([3]; Oil phase Ex. 9 of DE102006034883 (MCT, DIPA, liquid paraffin, Capryol 90)): 830 µg/mL
- overall theoretical solubility ([3]; complete formulation Ex. 3 of DE102006034883): about 0.13 mg/ml
- overall theoretical solubility ([3]; complete formulation Ex. 9 of DE102006034883): about 0.293 mg/ml

— patent publication US12447161B2, “Topical pharmaceutical formulation” (RaDes GmbH, priority 2021, dated 2025)
